# Data taken from patent publication US20150299188A1, “HETEROCYCLIC COMPOUND” (priority 2012, published 2015).
# Test system: FLAP (5-lipoxygenase activating protein)
# Assay: In vitro binding test: displacement of [3H]-7-chloro-3-(5-((3-fluoropyridin-2-yl)methoxy)-2-methylphenyl)-3,4-dihydroquinazolin-2(1H)-one from Sf9 microsome fractions
# Set-up: species or system human and mouse
# Conditions: Sf9 microsome fractions expressing FLAP; 100% = radioligand binding with 10 μM sodium 3-(3-(tert-butylsulfanyl)-1-(4-chlorobenzyl)-5-isopropyl-1H-indol-2-yl)-2,2-dimethylpropanoate, 0% = DMSO; test compound concentration not given
# Protocol: As an assay buffer, 100 mM Tris-HCl, pH 7.5, 140 mM NaCl, 2 mM EDTA, 0.5 mM dithiothreitol, 5% glycerol, 0.05% Tween20 was used. Sf9 microsome fractions expressing human and mouse FLAPs were dispensed by 50 μL to a 96-well plate at 2 μg/mL. Furthermore, a test compound (25 μL) diluted 4-fold of the final concentration with the assay buffer was added and mixed therewith, and the mixture was incubated at room temperature for 10 min. Furthermore, 120 nM [^3H]-7-chloro-3-(5-((3-fluoropyridin-2-yl)methoxy)-2-methylphenyl)-3,4-dihydroquinazolin-2(1H)-one was added by 25 μL, and mixed therewith, and the mixture was incubated at room temperature for 60 min. Thereafter, the cells were transferred to a 96-well GF/B Unifilter plate with a FilterMate cell harvester, and washed 3 times with a wash buffer (100 mM Tris-HCl pH 7.5, 0.05% Tween20, 200 μL) cooled to 4° C. The GF/B Unifilter plate was dried at 37° C., Microscint 0 was added and measured by TopCount NXT (PerkinElmer). As for the inhibitory activity, the inhibitory rate was calculated wherein the [^3H]-7-chloro-3-(5-((3-fluoropyridin-2-yl)methoxy)-2-methylphenyl)-3,4-dihydroquinazolin-2(1H)-one binding amount in the presence of 10 μM sodium 3-(3-(tert-butylsulfanyl)-1-(4-chlorobenzyl)-5-isopropyl-1H-indol-2-yl)-2,2-dimethylpropanoate was 100%, and the [^3H]-7-chloro-3-(5-((3-fluoropyridin-2-yl)methoxy)-2-methylphenyl)-3,4-dihydroquinazolin-2(1H)-one binding amount in the presence of DMSO was 0%.
row,SMILES,inhibitory rate (%)
1,"O=c1[nH]c2ccccc2c(=O)n1-c1cc(OCc2c(F)cccc2F)ccn1 [Example 324, 3-(4-((2,6-difluorobenzyl)oxy)pyridin-2-yl)quinazoline-2,4(1H,3H)-dione]",50
2,"O=C1Nc2nccc(OCC(F)(F)F)c2CN1c1cc2c(cc1Cl)CCC(c1ncccc1F)O2 (stereo not shown) [Example 61, 3-(6-chloro-2-(3-fluoropyridin-2-yl)-3,4-dihydro-2H-chromen-7-yl)-5-(2,2,2-trifluoroethoxy)-3,4-dihydropyrido[2,3-d]pyrimidin-2(1H)-one]",91
3,"Cc1ccc(OCc2ncccc2F)cc1-n1c(=O)[nH]c2cc(NC(=O)C3CC3)ccc2c1=O [Example 350, N-(3-(5-((3-fluoropyridin-2-yl)methoxy)-2-methylphenyl)-2,4-dioxo-1,2,3,4-tetrahydroquinazolin-7-yl)cyclopropanecarboxamide]",101
4,"Cc1ccc(OCc2ncccc2F)cc1-n1c(=O)[nH]c2cc(N)ccc2c1=O [Example 348, 7-amino-3-(5-((3-fluoropyridin-2-yl)methoxy)-2-methylphenyl)quinazoline-2,4(1H,3H)-dione]",101
5,"Cc1ccc(OCc2ncccc2F)cc1N1Cc2ncccc2NC1=O [Example 272, 3-(5-((3-fluoropyridin-2-yl)methoxy)-2-methylphenyl)-3,4-dihydropyrido[3,2-d]pyrimidin-2(1H)-one]",95
6,"O=C1Nc2c(N3CCOCC3)ncc(Cl)c2CN1c1cc2c(cc1Cl)CCC(c1ncccc1F)O2 (stereo not shown) [Example 81, 5-chloro-3-(6-chloro-2-(3-fluoropyridin-2-yl)-3,4-dihydro-2H-chromen-7-yl)-8-(morpholin-4-yl)-3,4-dihydropyrido[3,4-d]pyrimidin-2(1H)-one]",102
7,"Cc1ccc(OCc2ncccc2Cl)cc1N1Cc2nn(C)cc2NC1=O [Example 265, 6-(5-((3-chloropyridin-2-yl)methoxy)-2-methylphenyl)-2-methyl-2,4,6,7-tetrahydro-5H-pyrazolo[4,3-d]pyrimidin-5-one]",82
8,"COc1ncnc2c1CN(c1cc(OCc3ncccc3F)ccc1C)C(=O)N2 [Example 319, 3-(5-((3-fluoropyridin-2-yl)methoxy)-2-methylphenyl)-5-methoxy-3,4-dihydropyrimido[4,5-d]pyrimidin-2(1H)-one]",52
9,"Cc1ccc(OCc2ncccc2F)cc1N1Cc2ccc(C(=O)NC3CC3)cc2NC1=O [Example 261, N-cyclopropyl-3-(5-((3-fluoropyridin-2-yl)methoxy)-2-methylphenyl)-2-oxo-1,2,3,4-tetrahydroquinazoline-7-carboxamide]",116
10,"Cc1ccc(OCc2ncccc2F)cc1N1Cc2c(Cl)ncnc2NC1=O [Example 318, 5-chloro-3-(5-((3-fluoropyridin-2-yl)methoxy)-2-methylphenyl)-3,4-dihydropyrimido[4,5-d]pyrimidin-2(1H)-one]",62
11,"Cc1ccc(OCc2ncccc2F)cc1N1Cc2cccc(Cl)c2NC1=O [Example 253, 8-chloro-3-(5-((3-fluoropyridin-2-yl)methoxy)-2-methylphenyl)-3,4-dihydroquinazolin-2(1H)-one]",93
12,"Cc1cc2c(cc1N1Cc3c(ccnc3C(F)(F)F)NC1=O)O[C@@H](c1ncccc1F)CC2 [Example 5, 3-((2R)-2-(3-fluoropyridin-2-yl)-6-methyl-3,4-dihydro-2H-chromen-7-yl)-5-(trifluoromethyl)-3,4-dihydropyrido[4,3-d]pyrimidin-2(1H)-one]",100
13,"O=C1Nc2nccc(C(F)(F)F)c2CN1c1cc2c(cc1Cl)CCC(c1ncccc1F)O2 (stereo not shown) [Example 57, 3-(6-chloro-2-(3-fluoropyridin-2-yl)-3,4-dihydro-2H-chromen-7-yl)-5-(trifluoromethyl)-3,4-dihydropyrido[2,3-d]pyrimidin-2(1H)-one]",105
14,"CC(C)(O)c1ccc2c(c1)NC(=O)N(c1cc(OCc3c(F)cccc3F)ccc1F)C2 [Example 233, 3-(5-((2,6-difluorobenzyl)oxy)-2-fluorophenyl)-7-(2-hydroxypropan-2-yl)-3,4-dihydroquinazolin-2(1H)-one]",87
15,"COC(=O)c1ccc2c(=O)n(-c3cc(OCc4c(F)cccc4F)ccc3C)c(=O)[nH]c2c1 [Example 335, methyl 3-(5-((2,6-difluorobenzyl)oxy)-2-methylphenyl)-2,4-dioxo-1,2,3,4-tetrahydroquinazoline-7-carboxylate]",103
16,"O=C1Nc2cc(CO)ccc2CN1c1cc(OCc2c(F)cccc2F)ccc1Cl [Example 218, 3-(2-chloro-5-((2,6-difluorobenzyl)oxy)phenyl)-7-(hydroxymethyl)-3,4-dihydroquinazolin-2(1H)-one]",95
17,"O=C1Nc2cc(Br)ccc2CN1c1cc(OCc2ncccc2F)ccc1C(F)(F)F [Example 301, 7-bromo-3-(5-((3-fluoropyridin-2-yl)methoxy)-2-(trifluoromethyl)phenyl)-3,4-dihydroquinazolin-2(1H)-one]",104
18,"O=C1Nc2cc(Cl)nc(C3CC3)c2CN1c1cc2c(cc1Cl)CCC(c1ncccc1F)O2 (stereo not shown) [Example 72, 7-chloro-3-(6-chloro-2-(3-fluoropyridin-2-yl)-3,4-dihydro-2H-chromen-7-yl)-5-cyclopropyl-3,4-dihydropyrido[4,3-d]pyrimidin-2(1H)-one]",104
19,"NC(=O)c1cc2c(c(C3CC3)n1)CN(c1cc3c(cc1Cl)CCC(c1ncccc1F)O3)C(=O)N2 (stereo not shown) [Example 95, 3-(6-chloro-2-(3-fluoropyridin-2-yl)-3,4-dihydro-2H-chromen-7-yl)-5-cyclopropyl-2-oxo-1,2,3,4-tetrahydropyrido[4,3-d]pyrimidine-7-carboxamide]",89
20,"Cc1ccc(OCc2c(F)cccc2F)cc1N1Cc2ccc(C(=O)N3CCCC(O)C3)cc2NC1=O (stereo not shown) [Example 205, 3-(5-((2,6-difluorobenzyl)oxy)-2-methylphenyl)-7-((3-hydroxypiperidin-1-yl)carbonyl)-3,4-dihydroquinazolin-2(1H)-one]",77
21,"Cc1ccc(OCc2ccc(F)cc2F)cc1N1Cc2ccc(C(C)(C)O)cc2NC1=O [Example 201, 3-(5-((2,4-difluorobenzyl)oxy)-2-methylphenyl)-7-(2-hydroxypropan-2-yl)-3,4-dihydroquinazolin-2(1H)-one]",104
22,"O=C1Nc2ccccc2CN1c1cc(OCc2ncccc2F)ccc1Cl [Example 231, 3-(2-chloro-5-((3-fluoropyridin-2-yl)methoxy)phenyl)-3,4-dihydroquinazolin-2(1H)-one]",103
23,"COC(=O)c1ccc2c(c1)NC(=O)N(c1cc(OCc3ccccn3)ccc1C)C2 [Example 232, methyl 3-(2-methyl-5-(pyridin-2-ylmethoxy)phenyl)-2-oxo-1,2,3,4-tetrahydroquinazoline-7-carboxylate]",104
24,"O=C1Nc2cncc(C(F)(F)F)c2CN1c1cc2c(cc1Cl)CCC(c1ncccc1F)O2 (stereo not shown) [Example 78, 3-(6-chloro-2-(3-fluoropyridin-2-yl)-3,4-dihydro-2H-chromen-7-yl)-5-(trifluoromethyl)-3,4-dihydropyrido[3,4-d]pyrimidin-2(1H)-one]",105
25,"Cc1ccc(OCc2c(F)cccc2F)cc1N1Cc2ccncc2NC1=O [Example 240, 3-(5-((2,6-difluorobenzyl)oxy)-2-methylphenyl)-3,4-dihydropyrido[3,4-d]pyrimidin-2(1H)-one]",76
26,"Cc1ccc(OCc2c(F)cccc2F)cc1N1Cc2ccc(C#N)cc2NC1=O [Example 204, 3-(5-((2,6-difluorobenzyl)oxy)-2-methylphenyl)-2-oxo-1,2,3,4-tetrahydroquinazoline-7-carbonitrile]",103
27,"COCCN1C(=O)N(c2cc3c(cc2Cl)CCC(c2ncccc2F)O3)Cc2c1ccnc2Cl (stereo not shown) [Example 55, 5-chloro-3-(6-chloro-2-(3-fluoropyridin-2-yl)-3,4-dihydro-2H-chromen-7-yl)-1-(2-methoxyethyl)-3,4-dihydropyrido[4,3-d]pyrimidin-2(1H)-one]",106
28,"O=C1Nc2cc(-c3nsc(=O)[nH]3)nc(C3CC3)c2CN1c1cc2c(cc1Cl)CCC(c1ncccc1F)O2 (stereo not shown) [Example 134, 3-(6-chloro-2-(3-fluoropyridin-2-yl)-3,4-dihydro-2H-chromen-7-yl)-5-cyclopropyl-7-(5-oxo-4,5-dihydro-1,2,4-thiadiazol-3-yl)-3,4-dihydropyrido[4,3-d]pyrimidin-2(1H)-one]",91
